The values below come from patent US6992079B2, “Substituted 11-phenyl-dibenzazepine compounds useful for the treatment or prevention of diseases characterized by abnormal cell proliferation” (President Fellows of Harvard College, priority 1997, dated 2006).

Data set [1] has as its system Ca^2+ from intracellular pools / capacitative Ca^2+ influx. Description: Intracellular Ca2+ release and capacitative Ca2+ influx. Format: cell-based. The following applies: in vitro.
Data set [2] can be described thus: Preliminary toxicology, subcutaneous injection for 14 days. Format: in vivo, CD-1 female mice. The following applies: mouse, in vivo, sc, 80 mg/kg/day. On the procedure:
The toxicological effects of CLT, and compounds 28, 30 and 31 were tested in CD-1 female mice. A dose of 80 mg/kg/day was given to each mouse via subcutaneous injection for a period of 14 days. Preliminary toxicological data was determined by measuring body weight, gross pathology of organs blood chemistry and histology. The vehicle used was DMF 12%+2% Tween 20 88%.

The test system of data set [3] is NIH 3T3 mouse fibroblast cells. Description: Mitogenic assay (mitogen-induced cell proliferation). It is filed as cell-based. The following applies: NIH3T3, 10 μM compound.
Data set [4] deals with squamous cell carcinoma (KLN-205) cells. Description: Tumor growth in murine squamous cell carcinoma model. It is filed as in vivo, mouse.
Data set [5] concerns human melanoma MM-RU cells. Description: Lung metastases in MM-RU tumor-bearing mice. Format: in vivo, nude mice.
Another data set concerns MMRU. Description: SRB antiproliferative assay. Format: cell-based. The following applies: Homo sapiens. The source says:
(§1) The cells were passaged using Trypsin (Gibco).
(In general: In SRB staining, fixed cells bind dye roughly in proportion to their protein.)

A further data set concerns MCF7. Description: SRB antiproliferative assay. It is filed as cell-based. As to conditions: Homo sapiens.
Description: as §1

Another data set has as its system A549. Description: SRB antiproliferative assay. As to conditions: Homo sapiens. Format: cell-based.
Description: as §1

The test system of the next data set is HT29. Description: SRB antiproliferative assay. The following applies: Homo sapiens. It is filed as cell-based.
Description: as §1

The subject of a further data set is HEPG2. Description: SRB antiproliferative assay. Format: cell-based. As to conditions: Homo sapiens, HepG2, HEPG2 (Hepatocel), 5% FCS/5 day incubation.
Description: as §1

For a further data set, the system named is U118MG. Description: SRB antiproliferative assay. It is filed as cell-based. The following applies: Homo sapiens, U-118-MG, U118MG (CNS), 5% FCS/5 day incubation.
Description: as §1

In the next data set the test system is MDA-MB-23. Description: SRB antiproliferative assay. It is filed as cell-based. As to conditions: Homo sapiens; MDA-MB-23 (Breast); SRB; 5% FCS/5 day incubation; read-out: IC50.
Description: as §1

The subject of a further data set is HeLa. Description: SRB antiproliferative assay. The following applies: Homo sapiens, HeLa (Cervical), 5% FCS/5 day incubation. Format: cell-based.
Description: as §1

The next data set concerns HTB174. Description: SRB antiproliferative assay. It is filed as cell-based. The following applies: Homo sapiens, HTB174 (Lung), 5% FCS/5 day incubation.
Description: as §1

The mark [6] stands for this setting: mouse, in vivo, po, 120 mg/kg/day.
Where [7] appears, read: MMRU (Melanoma), 5% FCS/5 day incubation.
Where [8] appears, read: MCF7, MCF7 (Breast), 5% FCS/5 day incubation.
Setting [9] is: A549, A549 (Lung), 5% FCS/5 day incubation.
[10] abbreviates: HT-29, HT29 (Colon), 5% FCS/5 day incubation.

pIC50: −log10 of the molar value.

The inhibition is the drop in the measured response relative to a control, in per cent. For the compound `Clc1ccccc1C(c1ccccc1)(c1ccccc1)n1ccnc1` [Clotrimazole, reference compound], in [1], the “Ca^2+ release from intracellular pools” value was “releases Ca^2+ from intracellular pools” and the “capacitative Ca^2+ influx into the cell” value is listed as “inhibits capacitative Ca^2+ influx”. Besides, the “overall body weight vs age matched control animals” value in data set [2] is “no significant gains or losses”. Also, in [3], the inhibition at 10 µM stood at 93%. Besides, the “cyclin D1 and PCNA expression in vivo” value in data set [4] (KLN induced tumors) was “abrogated cyclin D1 and PCNA expression”. The tumor growth entry in data set [4] (KLN-205, subcutaneous injection or oral administration of 80 mg/kg/day for 30 days) is “significantly inhibited tumor growth”. Further, in data set [5] (MM-RU tumor-bearing mice, 120 mg/kg/d × 21, p.o.), the “Lung Metastases” value came to 64 ± 20. Also, in data set [5] (setting [6]), the “Body Wt. Change” value worked out at 86% and the “Liver Wt.” value was 1.19 ± 0.10 gram.
On to `c1ccc(C2c3ccccc3CNc3ccccc32)cc1` (centres unmarked) [Compound 1], for which, in data set [3] (Mus musculus), the inhibition at 10 µM came out at 56%.
Still for that read-out and setting: the same measure for `CN1Cc2ccccc2C(c2ccccc2)c2ccccc21` (centres unmarked) [Compound 2]: 99%; for `Clc1ccccc1C1c2ccccc2CNc2ccccc21` (centres unmarked) [Compound 3]: 99%.
As a reminder, the pIC50 is the negative decadic logarithm of the IC50, by convention in mol/L. Compound `CN1Cc2ccccc2C(c2ccccc2Cl)c2ccccc21` (centres unmarked) [Compound 4] registered an inhibition at 10 µM in data set [3] (Mus musculus) of 89%. Also, the pIC50 in the data set on MMRU (MMRU, 2% FCS/3 days) was 5.34; in the data set on MCF7 (MCF7, MCF7, 2% FCS/3 days), 5.77; with A549 (A549, A549, 2% FCS/3 days), 4.94; in the data set with HT29 (HT-29, HT29, 2% FCS/3 days), 5.01.
Turning to `c1ccc(CN2Cc3ccccc3C(c3ccccc3)c3ccccc32)cc1` (centres unmarked) [Compound 5], in data set [3] (Mus musculus), the inhibition at 10 µM is 91%.
Consider `COC(=O)N1Cc2ccccc2C(c2ccccc2)c2ccccc21` (centres unmarked) [Compound 6], for which, in data set [3] (Mus musculus), at 10 µM the inhibition was 87%. Besides, the pIC50 in the data set with A549 (A549, A549, 5% FCS/2 days) is < 5.00; in the data set with HT29 (HT-29, HT29, 5% FCS/2 days), < 5.00.
As to `CN1Cc2ccccc2C(c2ccccc2)c2cc(Br)ccc21` (centres unmarked) [Compound 7], testing at 10 µM in data set [3] (Mus musculus) gave an inhibition of 99%.
The same measure, in the same setting: the same measure for `Clc1ccccc1C1c2ccccc2CN(Cc2ccccc2)c2ccccc21` (centres unmarked) [Compound 8]: 84%.
In general, melting point refers to the temperature of the solid-liquid transition. `COC(=O)N1Cc2ccccc2C(c2ccccc2Cl)c2ccccc21` (centres unmarked) [Compound 9, N-methoxycarbonyl-11-(2′-chlorophenyl)-5,6-dihydro-11H-dibenz[b,e]azepine] displayed a melting point of 159 to 161 °C. Moreover, 10 µM produced 99% inhibition in [3] (Mus musculus).
Turning to `CCOC(=O)C(=O)N1Cc2ccccc2C(c2ccccc2)c2ccccc21` (centres unmarked) [Compound 10], testing at 10 µM in data set [3] (Mus musculus) gave an inhibition of 53%.
As for `O=C(O)C(=O)N1Cc2ccccc2C(c2ccccc2)c2ccccc21` (centres unmarked) [Compound 11], at 10 µM the inhibition in [3] (Mus musculus) was 32%.
`COc1ccc2c(c1)CNc1ccccc1C2(c1ccccc1)c1ccc(F)cc1` (centres unmarked) [Compound 12] displayed an inhibition at 10 µM in data set [3] (Mus musculus) of 13%.
On the same count and under the same terms, for `O=C(c1ccc(Cl)cc1)N1Cc2ccccc2C(c2ccccc2)c2ccccc21` (centres unmarked) [Compound 13] the value was 97%.
Regarding `O=C(Oc1ccccc1)N1Cc2ccccc2C(c2ccccc2)c2ccccc21` (centres unmarked) [Compound 14, N-phenoxycarbonyl-11-phenyl-5,6-dihydro-11H-dibenz[b,e]azepine], the melting point was in the range of 155 to 165 °C. Also, 10 µM produced 98% inhibition in data set [3] (Mus musculus).
In [3] (Mus musculus), `Clc1ccc2c(c1)C(c1ccccc1)c1cc3ccccc3cc1CN2` (centres unmarked) [Compound 15] displayed an inhibition at 10 µM of 40%.
Turning to `O=C(c1ccccc1)N1Cc2ccccc2C(c2ccccc2)c2ccccc21` (centres unmarked) [Compound 16], the inhibition at 10 µM in data set [3] (Mus musculus) stood at 99%. For the same compound, the negative logarithm of the IC50 (pIC50) in the data set with MMRU (setting [7]) is 5.57; in the data set with HEPG2, 5.47; in the data set with MCF7 (setting [8]), 5.38; with A549 (setting [9]), < 5.30; in the data set with HT29 (setting [10]), 5.59.
`COc1cccc(C(=O)N2Cc3ccccc3C(c3ccccc3)c3ccccc32)c1` (centres unmarked) [Compound 17] yielded an inhibition at 10 µM in [3] (Mus musculus) of 99%.
Turning to `COc1cccc2c1C(c1ccccc1Cl)c1cc(Cl)ccc1NC2` (centres unmarked) [Compound 18], the inhibition at 10 µM in data set [3] (Mus musculus) stood at 99%.
As to `COc1ccc2c(c1)CNc1ccc(Cl)cc1C2c1ccccc1Cl` (centres unmarked) [Compound 19], in data set [3] (Mus musculus), the inhibition at 10 µM was found to be 99%.
Compound `O=C(c1ccc([N+](=O)[O-])cc1)N1Cc2ccccc2C(c2ccccc2)c2ccccc21` (centres unmarked) [Compound 20] had an inhibition at 10 µM in [3] (Mus musculus) of 95%. Also, the negative logarithm of the IC50 (pIC50) in the data set on HEPG2 was 6.05; in the data set on U118MG it was 6.05; with MDA-MB-23, < 6.00; in the data set with HeLa, 6.22; in the data set on HTB174, 6.15; in the data set on HT29 (setting [10]), 6.15.
As for `COc1ccc(C(=O)N2Cc3ccccc3C(c3ccccc3)c3ccccc32)cc1` (centres unmarked) [Compound 21], the inhibition at 10 µM in data set [3] (Mus musculus) came to 93%. Also, the pIC50 in the data set with HTB174 was 5.72.
In data set [3] (Mus musculus), `Cc1ccc(C(=O)N2Cc3ccccc3C(c3ccccc3)c3ccccc32)cc1` (centres unmarked) [Compound 22] gave an inhibition at 10 µM of 99%. For the same compound, in the data set with HTB174, the negative logarithm of the IC50 (pIC50) was 5.85.
Compound `COc1ccc2c(c1)CN(C(=O)c1ccc(Cl)cc1)c1ccc(Cl)cc1C2c1ccccc1Cl` (centres unmarked) [Compound 23] had an inhibition at 10 µM in data set [3] (Mus musculus) of 55%.
As for `COc1cccc2c1C(c1ccccc1Cl)c1cc(Cl)ccc1N(C(=O)c1ccc(Cl)cc1)C2` (centres unmarked) [Compound 24], in [3] (Mus musculus), testing at 10 µM gave an inhibition of 89%.
Same read-out and setting: for `O=C(c1ccc2ccccc2c1)N1Cc2ccccc2C(c2ccccc2)c2ccccc21` (centres unmarked) [Compound 25] the value was 75%.
In the case of `O=C(Oc1ccccc1)N1Cc2ccccc2C(c2ccccc2Cl)c2ccccc21` (centres unmarked) [Compound 26, N-phenoxycarbonyl-11-(2′-chlorophenyl)-5,6-dihydro-11H-dibenz[b,e]azepine], the melting point is 95 to 99 °C. For the same compound, at 10 µM the inhibition in [3] (Mus musculus) was 99%.
As to `COc1ccc(C(=O)N2Cc3ccccc3C(c3ccccc3Cl)c3ccccc32)cc1` (centres unmarked) [Compound 27], the inhibition at 10 µM in data set [3] (Mus musculus) is 99%. The pIC50 in the data set on HEPG2 was 6.40; with MCF7 (setting [8]) it was 6.30; with U118MG, 6.40; with A549 (setting [9]), 5.96; with MDA-MB-23, < 6.00; in the data set with HeLa it was 6.70. Further, the pIC50 with HTB174 was 6.52; in the data set with HT29 (setting [10]), 6.40.
In data set [3] (Mus musculus), `O=C(Nc1ccccc1)N1Cc2ccccc2C(c2ccccc2Cl)c2ccccc21` (centres unmarked) [Compound 32] displayed an inhibition at 10 µM of 99%.
In turn, `CNc1ccc(C(=O)N2Cc3ccccc3C(c3ccccc3Cl)c3ccccc32)cc1` (centres unmarked) [Compound 33] registered an inhibition at 10 µM in [3] (Mus musculus) of 99%. The compound also showed a pIC50 with HTB174 of 5.85.
`Nc1ccc(C(=O)N2Cc3ccccc3C(c3ccccc3Cl)c3ccccc32)cc1` (centres unmarked) [Compound 34] displayed an inhibition at 10 µM in [3] (Mus musculus) of 99%. For the same compound, the results for the pIC50 in the data set on MMRU (setting [7]), in the data set with HEPG2 and in the data set with HTB174 were 5.92, 5.82 and 6.05, respectively.
The compound `O=C(Nc1ccc([N+](=O)[O-])cc1)N1Cc2ccccc2C(c2ccccc2Cl)c2ccccc21` (centres unmarked) [Compound 35] had an inhibition at 10 µM in [3] (Mus musculus) of 0%. Besides, the pIC50 with MMRU (setting [7]) is 5.51; with HEPG2, 5.35; in the data set on MCF7 (setting [8]) it was 5.62; with A549 (setting [9]), < 5.30; with HTB174 it was 5.40; with HT29 (setting [10]), 5.32.
